{"source": "the supplement of paper PMC10307832", "test_in_all_cases": "relative viability (nuclei count vs DMSO), 5 days (fraction); higher = more cells survive", "key": {"[1]": {"compound": "CN(C)C(=N)NC(=N)N [Metformin] + Cc1nc(NC(=O)N2CCC[C@H]2C(N)=O)sc1-c1ccnc(C(C)(C)C(F)(F)F)c1 [Alpelisib] (partner 2 µM)", "method_in_brief": "(§1)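 Lung cancer cell lines in 1536-well plates were dosed by pin tool the day after seeding, either with one drug alone or with a fixed anchor-drug dose plus five library-drug doses (not always all listed) in √10 steps. After 5 days, cells were fixed and their nuclei stained in one step (final 0.05% Triton X-100, 1% formaldehyde, 1 ug/ml Hoechst), then counted on 4× images. Relative viability is the nuclei count in treated wells divided by that in vehicle wells. Values are medians of duplicate plates.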"}, "[2]": {"compound": "N#CC1(c2ccc(NC(=O)c3cccnc3NCc3ccncc3)cc2)CCCC1 [Apatinib] + CC(=O)c1c(C)c2cnc(Nc3ccc(N4CCNCC4)cn3)nc2n(C2CCCC2)c1=O [Palbociclib] (partner 0.5 µM)", "method_in_brief": "as §1"}, "[3]": {"compound": "N#CC1(c2ccc(NC(=O)c3cccnc3NCc3ccncc3)cc2)CCCC1 [Apatinib] + CC(C)C[C@H](NC(=O)[C@H](Cc1ccccc1)NC(=O)c1cnccn1)B(O)O [Bortezomib] (partner 0.002 µM)", "method_in_brief": "as §1"}, "[4]": {"compound": "N#CC1(c2ccc(NC(=O)c3cccnc3NCc3ccncc3)cc2)CCCC1 [Apatinib] + NC(=O)Nc1cc(-c2cccc(F)c2)sc1C(=O)N[C@H]1CCCNC1 [AZD7762] (partner 0.2 µM)", "method_in_brief": "as §1"}}, "data": [{"cell line": "LXF-289", "values": [{"measurement": "relative viability", "setting": "[1]; first compound 10 µM", "value": 0.909}, {"measurement": "relative viability", "setting": "[1]; first compound 31.62 µM", "value": 0.97}, {"measurement": "relative viability", "setting": "[1]; first compound 100 µM", "value": 0.963}, {"measurement": "relative viability", "setting": "[1]; first compound 316.23 µM", "value": 0.943}, {"measurement": "relative viability", "setting": "[1]; first compound 1000 µM", "value": 1.01}, {"measurement": "relative viability", "setting": "[2]; first compound 0.08 µM", "value": 0.594}, {"measurement": "relative viability", "setting": "[2]; first compound 0.253 µM", "value": 0.593}, {"measurement": "relative viability", "setting": "[2]; first compound 0.8 µM", "value": 0.567}, {"measurement": "relative viability", "setting": "[2]; first compound 2.53 µM", "value": 0.568}, {"measurement": "relative viability", "setting": "[2]; first compound 8 µM", "value": 0.562}, {"measurement": "relative viability", "setting": "[3]; first compound 0.08 µM", "value": 1.02}, {"measurement": "relative viability", "setting": "[3]; first compound 0.253 µM", "value": 0.983}, {"measurement": "relative viability", "setting": "[3]; first compound 0.8 µM", "value": 0.984}, {"measurement": "relative viability", "setting": "[3]; first compound 2.53 µM", "value": 0.936}, {"measurement": "relative viability", "setting": "[3]; first compound 8 µM", "value": 0.96}, {"measurement": "relative viability", "setting": "[4]; first compound 0.08 µM", "value": 1.13}, {"measurement": "relative viability", "setting": "[4]; first compound 0.253 µM", "value": 1.1}, {"measurement": "relative viability", "setting": "[4]; first compound 0.8 µM", "value": 1.09}, {"measurement": "relative viability", "setting": "[4]; first compound 2.53 µM", "value": 1.02}, {"measurement": "relative viability", "setting": "[4]; first compound 8 µM", "value": 1.02}]}, {"cell line": "LCLC-103H", "values": [{"measurement": "relative viability", "setting": "[1]; first compound 10 µM", "value": 1.05}, {"measurement": "relative viability", "setting": "[1]; first compound 31.62 µM", "value": 1}, {"measurement": "relative viability", "setting": "[1]; first compound 100 µM", "value": 1.14}, {"measurement": "relative viability", "setting": "[1]; first compound 316.23 µM", "value": 1.03}, {"measurement": "relative viability", "setting": "[1]; first compound 1000 µM", "value": 1}, {"measurement": "relative viability", "setting": "[2]; first compound 0.08 µM", "value": 0.513}, {"measurement": "relative viability", "setting": "[2]; first compound 0.253 µM", "value": 0.436}, {"measurement": "relative viability", "setting": "[2]; first compound 0.8 µM", "value": 0.426}, {"measurement": "relative viability", "setting": "[2]; first compound 2.53 µM", "value": 0.465}, {"measurement": "relative viability", "setting": "[2]; first compound 8 µM", "value": 0.483}, {"measurement": "relative viability", "setting": "[3]; first compound 0.08 µM", "value": 1.16}, {"measurement": "relative viability", "setting": "[3]; first compound 0.253 µM", "value": 1.03}, {"measurement": "relative viability", "setting": "[3]; first compound 0.8 µM", "value": 0.998}, {"measurement": "relative viability", "setting": "[3]; first compound 2.53 µM", "value": 0.992}, {"measurement": "relative viability", "setting": "[3]; first compound 8 µM", "value": 1.09}, {"measurement": "relative viability", "setting": "[4]; first compound 0.08 µM", "value": 0.801}, {"measurement": "relative viability", "setting": "[4]; first compound 0.253 µM", "value": 0.741}, {"measurement": "relative viability", "setting": "[4]; first compound 0.8 µM", "value": 0.858}, {"measurement": "relative viability", "setting": "[4]; first compound 2.53 µM", "value": 0.7}, {"measurement": "relative viability", "setting": "[4]; first compound 8 µM", "value": 0.75}]}, {"cell line": "NCI-H2405", "values": [{"measurement": "relative viability", "setting": "[1]; first compound 10 µM", "value": 0.873}, {"measurement": "relative viability", "setting": "[1]; first compound 31.62 µM", "value": 0.971}, {"measurement": "relative viability", "setting": "[1]; first compound 100 µM", "value": 0.852}, {"measurement": "relative viability", "setting": "[1]; first compound 316.23 µM", "value": 0.453}, {"measurement": "relative viability", "setting": "[1]; first compound 1000 µM", "value": 0.373}, {"measurement": "relative viability", "setting": "[2]; first compound 0.08 µM", "value": 0.528}, {"measurement": "relative viability", "setting": "[2]; first compound 0.253 µM", "value": 0.569}, {"measurement": "relative viability", "setting": "[2]; first compound 0.8 µM", "value": 0.546}, {"measurement": "relative viability", "setting": "[2]; first compound 2.53 µM", "value": 0.513}, {"measurement": "relative viability", "setting": "[2]; first compound 8 µM", "value": 0.479}, {"measurement": "relative viability", "setting": "[3]; first compound 0.08 µM", "value": 0.891}, {"measurement": "relative viability", "setting": "[3]; first compound 0.253 µM", "value": 0.99}, {"measurement": "relative viability", "setting": "[3]; first compound 0.8 µM", "value": 0.961}, {"measurement": "relative viability", "setting": "[3]; first compound 2.53 µM", "value": 0.954}, {"measurement": "relative viability", "setting": "[3]; first compound 8 µM", "value": 0.961}, {"measurement": "relative viability", "setting": "[4]; first compound 0.08 µM", "value": 0.773}, {"measurement": "relative viability", "setting": "[4]; first compound 0.253 µM", "value": 0.859}, {"measurement": "relative viability", "setting": "[4]; first compound 0.8 µM", "value": 0.713}, {"measurement": "relative viability", "setting": "[4]; first compound 2.53 µM", "value": 0.55}, {"measurement": "relative viability", "setting": "[4]; first compound 8 µM", "value": 0.609}]}]}
